Species on record: Rattus norvegicus
Test: DrugMatrix - Regimen: Daily Repeat
Assay type: toxicity, organism-based, Sprague-Dawley
Set-up: regimen Daily Repeat, gender Male, age 6-8 weeks
Conditions: in vivo, sc, 4 mg/kg, route subcutaneous, dose level High, […]; for ABSOLUTE BASOPHIL / ABSOLUTE EOSINOPHIL / ABSOLUTE LYMPHOCYTE / ABSOLUTE MONOCYTE / ABSOLUTE SEGMENTED NEUTROPHIL / BASOPHIL / EOSINOPHIL / ERYTHROCYTE COUNT / HEMATOCRIT / HEMOGLOBIN / LEUKOCYTE COUNT / LYMPHOCYTE / MEAN CORPUSCULAR HEMOGLOBIN / MEAN CORPUSCULAR HEMOGLOBIN CONCENTRATION / MEAN CORPUSCULAR VOLUME / MONOCYTE / NEUTROPHIL / NUCLEATED RED BLOOD CELLS / PLATELET COUNT: tissue Blood; for ALANINE AMINOTRANSFERASE / ALBUMIN / ALKALINE PHOSPHATASE / ASPARTATE AMINOTRANSFERASE / BLOOD UREA NITROGEN / CARBON DIOXIDE / CHLORIDE / CHOLESTEROL / CREATINE PHOSPHOKINASE / CREATININE / GLUCOSE / LACTATE DEHYDROGENASE / LIPASE / PHOSPHORUS / POTASSIUM / SODIUM / TOTAL BILIRUBIN / TOTAL PROTEIN / URIC ACID: tissue Plasma

Structure (SMILES): COc1cc([C@@H]2c3cc4c(cc3[C@H](O)[C@H]3COC(=O)[C@H]23)OCO4)cc(OC)c1OC [PODOFILOX]
- ABSOLUTE BASOPHIL (72 h, time 3 day): 0 CELLS/uL
- ABSOLUTE EOSINOPHIL (72 h, time 3 day): 70.67 CELLS/uL
- ABSOLUTE LYMPHOCYTE (72 h, time 3 day): 10536.33 CELLS/uL
- ABSOLUTE MONOCYTE (72 h, time 3 day): 257.67 CELLS/uL
- ABSOLUTE SEGMENTED NEUTROPHIL (72 h, time 3 day): 768.67 CELLS/uL
- BASOPHIL (72 h, time 3 day): 0%
- EOSINOPHIL (72 h, time 3 day): 0.67%
- ERYTHROCYTE COUNT (72 h, time 3 day): 4.67 x10E6/uL
- HEMATOCRIT (72 h, time 3 day): 29.03%
- HEMOGLOBIN (72 h, time 3 day): 11 G/DL
- LEUKOCYTE COUNT (72 h, time 3 day): 11.63 x10E3/uL
- LYMPHOCYTE (72 h, time 3 day): 90.33%
- MEAN CORPUSCULAR HEMOGLOBIN (72 h, time 3 day): 23.63 pg
- MEAN CORPUSCULAR HEMOGLOBIN CONCENTRATION (72 h, time 3 day): 37.93 G/DL
- MEAN CORPUSCULAR VOLUME (72 h, time 3 day): 62.43 fL
- MONOCYTE (72 h, time 3 day): 2.33%
- NEUTROPHIL (72 h, time 3 day): 6.67%
- NUCLEATED RED BLOOD CELLS (72 h, time 3 day): 0.67 /100WBC
- PLATELET COUNT (72 h, time 3 day): 1479.33 x10E3/uL
- ALANINE AMINOTRANSFERASE (72 h, time 3 day): 36 u/L
- ALBUMIN (72 h, time 3 day): 3.27 G/DL
- ALKALINE PHOSPHATASE (72 h, time 3 day): 238.33 u/L
- ASPARTATE AMINOTRANSFERASE (72 h, time 3 day): 81 u/L
- BLOOD UREA NITROGEN (72 h, time 3 day): 15.33 mg/dL
- CARBON DIOXIDE (72 h, time 3 day): 22.67 mmol/L
- CHLORIDE (72 h, time 3 day): 105.67 MEQ/L
- CHOLESTEROL (72 h, time 3 day): 61 mg/dL
- CREATINE PHOSPHOKINASE (72 h, time 3 day): 371.33 u/L
- CREATININE (72 h, time 3 day): 0.17 mg/dL
- GLUCOSE (72 h, time 3 day): 145 mg/dL
- LACTATE DEHYDROGENASE (72 h, time 3 day): 371.33 u/L
- LIPASE (72 h, time 3 day): 7.67 u/L
- PHOSPHORUS (72 h, time 3 day): 9.1 mg/dL
- POTASSIUM (72 h, time 3 day): 6.96 MEQ/L
- SODIUM (72 h, time 3 day): 144.97 MEQ/L
- TOTAL BILIRUBIN (72 h, time 3 day): 0.17 mg/dL
- TOTAL PROTEIN (72 h, time 3 day): 5.3 G/DL
- URIC ACID (72 h, time 3 day): 1.73 mg/dL
- ABSOLUTE BASOPHIL (120 h, time 5 day): 0 CELLS/uL
- ABSOLUTE EOSINOPHIL (120 h, time 5 day): 0 CELLS/uL
- ABSOLUTE LYMPHOCYTE (120 h, time 5 day): 6143.67 CELLS/uL
- ABSOLUTE MONOCYTE (120 h, time 5 day): 159 CELLS/uL
- ABSOLUTE SEGMENTED NEUTROPHIL (120 h, time 5 day): 330.67 CELLS/uL
- BASOPHIL (120 h, time 5 day): 0%
- EOSINOPHIL (120 h, time 5 day): 0%
- ERYTHROCYTE COUNT (120 h, time 5 day): 5.45 x10E6/uL
- HEMATOCRIT (120 h, time 5 day): 32.83%
- HEMOGLOBIN (120 h, time 5 day): 12.27 G/DL
- LEUKOCYTE COUNT (120 h, time 5 day): 6.63 x10E3/uL
- LYMPHOCYTE (120 h, time 5 day): 93%
- MEAN CORPUSCULAR HEMOGLOBIN (120 h, time 5 day): 22.5 pg
- MEAN CORPUSCULAR HEMOGLOBIN CONCENTRATION (120 h, time 5 day): 37.37 G/DL
- MEAN CORPUSCULAR VOLUME (120 h, time 5 day): 60.13 fL
- MONOCYTE (120 h, time 5 day): 2.33%
- NEUTROPHIL (120 h, time 5 day): 4.67%
- NUCLEATED RED BLOOD CELLS (120 h, time 5 day): 0 /100WBC
- PLATELET COUNT (120 h, time 5 day): 878 x10E3/uL
- ALANINE AMINOTRANSFERASE (120 h, time 5 day): 45.67 u/L
- ALBUMIN (120 h, time 5 day): 3.57 G/DL
- ALKALINE PHOSPHATASE (120 h, time 5 day): 214.33 u/L
- ASPARTATE AMINOTRANSFERASE (120 h, time 5 day): 96.33 u/L
- BLOOD UREA NITROGEN (120 h, time 5 day): 18 mg/dL
- CARBON DIOXIDE (120 h, time 5 day): 26.5 mmol/L
- CHLORIDE (120 h, time 5 day): 104.5 MEQ/L
- CHOLESTEROL (120 h, time 5 day): 69.5 mg/dL
- CREATINE PHOSPHOKINASE (120 h, time 5 day): 269.67 u/L
- CREATININE (120 h, time 5 day): 0.18 mg/dL
- GLUCOSE (120 h, time 5 day): 163 mg/dL
- LACTATE DEHYDROGENASE (120 h, time 5 day): 182.67 u/L
- LIPASE (120 h, time 5 day): 8 u/L
- PHOSPHORUS (120 h, time 5 day): 11.1 mg/dL
- POTASSIUM (120 h, time 5 day): 5.69 MEQ/L
- SODIUM (120 h, time 5 day): 146.25 MEQ/L
- TOTAL BILIRUBIN (120 h, time 5 day): 0.1 mg/dL
- TOTAL PROTEIN (120 h, time 5 day): 5.8 G/DL
- URIC ACID (120 h, time 5 day): 1.35 mg/dL

Reference: ChEMBL document CHEMBL3885881, “DrugMatrix”
